Marks after values point to notes of the source that are not given here.
How the values were obtained:
[1] = system: hop aphid, Phorodon humuli; assay: Preliminary field trials, yellow water traps, hop aphid summer morphs; assay type: in vivo; conditions: slow release 2.05 μg/day/trap; P<0.04
[2] = system: pollen beetles; assay: Field-trapping experiments with yellow bowl traps against pollen beetles; assay type: in vivo
Protocol: Field-trapping experiments were also conducted using cis-jasmone against pollen beetles. Attractive yellow bowl traps, at 1 m height and 10 m spacing, were placed in a Latin square design (one row of the Latin square=one replicate; traps are re-randomized to the next row of the square when a mean of 10 beetles are caught per trap). Catches in an unbaited bowl were compared with those bowls baited with cis-jasmone released at two different rates. Analysis was by ANOVA, on transformed total catch data. The transformation used was x=log10(y+1), where x and y are the transformed and untransformed data, respectively. Transformed means were compared using the LSD (least […] difference) test and transformed back to give the results as set out in Table 1.
P<0.05. Numbers in brackets are the percent reduction in trap catch compared with the unbaited trap.

[3] = system: cereal aphids (predominantly Metropolophium dirhodum) on winter wheat, Triticum aestivum; assay: Field study of cereal aphids on sprayed winter wheat plots; assay type: in vivo; conditions: sprayed 50 g a.i./ha on 5 May and 11 Jun. 1999
Description: The data have been transformed back from the logs to ease presentation. […] The predominant aphid species was Metropolophium dirhodum, the rose-grain aphid. S. avenae and Rhopalosiphum padi were also present, but numbers were very low. […] Plots (6 m×6 m) of winter wheat, Triticum aestivum (cv Consort), were arranged in a 5×5 quasi-complete Latin square design. The five cis-jasmone treated plots were sprayed on 5 May and 11 Jun. 1999, using a hand-held hydraulic device, at a rate of 50 g active ingredient/ha in 200 l/ha of aqueous […] BV (0.1%). Control plots were untreated. […] At each count, five tillers were inspected at 12 separate sites on two diagonal transects totalling 60 tillers per plot. Transformed data (y=log(y+1)) were subjected to ANOVA and the sums of squares of the treatments were partitioned to test for significant differences.

[4] = system: seven-spot ladybird, Coccinella seplempunclata; assay: Olfactometer assay with seven-spot ladybird; assay type: in vivo; conditions: 0.5 μl microcaps, position noted every 2 min for 20 min, 8 replicates; control arms 2.4±0.69; P<0.005
Description: Since semiochemicals acting as repellents or inhibitors of host attractancy for herbivorous insects are often involved in predation or parasitism, the activity of cis-jasmone was also investigated at higher trophic levels. […] These experiments indicate a behavioural role for cis-jasmone in influencing interactions between plants, herbivorous insects and their predators and parasitoids. Apparatus and methodology were similar to that employed for aphids (above). The test compound was applied in 0.5 μl microcaps (Drummond Sci. Co.) at the end of one of the side arms and each arm was supplied with moist filter paper to minimize differences in relative humidity. Individual C. septempunctata were introduced into the centre of the arena and their positions noted every 2 min for 20 min. The experiment was replicated 8 times and results analysed as above.

[5] = system: aphid parasitoid Aphidius ervi; assay: Wind tunnel responses of A. ervi to V. faba plants exposed to the compound; assay type: in vivo
Protocol: A possible role for the compound as an airborne plant signal was investigated using the broad bean, V. faba (cv The Sutton). Plants were kept for 24 hours in clean air or in air incorporating cis-jasmone at 100 μg/l; subsequently, samples of volatiles released by the plants were obtained by entrainment over 4 periods of 48 hours, i.e. up to 192 hours after the end of the treatment. The cis-jasmone itself was undetectable after 48 hours. […] There was also, from some replicates, enhancement of (E,E)-α-farnesene, (−)-β-caryophyllene and (E)-4,8-dimethyl-1,3,7-nonatriene. These compounds have all been implicated in herbivorous insect-induced production and increased parasitoid foraging. The nonatriene can also be produced innately by plants imitating damage for defence against herbivores and which are thus attractive to parasitoids.
Naive female A. ervi were flown in a wind tunnel, as described in J. Chem. Ecol. 16, 381-396 (1996) (Poppy et al.). The parasitoids were released 25 cm downwind (single choice tests) or 40 cm downwind (dual choice test) of the target, which was either a plant or a synthetic compound (10 μg in 10 μl hexane) placed on a 2×1 cm strip of filter paper (Whatman No. 1) surrounded by a ring of green crêpe paper. The proportions of parasitoids responding with an oriented flight to the synthetic chemicals were calculated each day on 3 separate days. These values were then subjected to a logit transformation to normalize the data before being analysed by ANOVA followed by Tukey post-hoc tests. The number of parasitoids orienting upwind to the single plant target were recorded and subjected to a χ^2 contingency test (Pearson method on Genstat—see Genstat 5 Committee. Genstat 5 Reference Manual, Release 3 (Clarendon Press, Oxford, 1993)) to determine whether an orienting response was linked to the type of plant treatment. The numbers orienting to each plant in the dual choice test were analysed by a χ^2 to determine whether one plant was more attractive than the other. […]

[6] = system: adult Lepidoptera; conditions: U.S. Pat. No. 5,665,344; cited from earlier work

SMILES: CC/C=C\CC1=C(C)CCC1=O [cis-jasmone]
- reduction of catches in water traps with visual (yellow) attractancy [1]: 40%
- percent reduction in trap catch compared with the unbaited trap ([2]; Analysis A, 2.2 mg/day): (44%)
- Back-transformed mean catch per replicate ([2]; Analysis A, 2.2 mg/day, unbaited trap 127.3): 70.9^b
- percent reduction in trap catch compared with the unbaited trap ([2]; Analysis A, 25 mg/day): (59%)
- Back-transformed mean catch per replicate ([2]; Analysis A, 25 mg/day, unbaited trap 127.3): 51.7^c
- percent reduction in trap catch compared with the unbaited trap ([2]; Experiment A, 2.2 mg/day): (21%)
- Back-transformed mean catch per replicate ([2]; Experiment A, 2.2 mg/day, unbaited trap 48.3): 38.2^ab
- percent reduction in trap catch compared with the unbaited trap ([2]; Experiment A, 25 mg/day): (35%)
- Back-transformed mean catch per replicate ([2]; Experiment A, 25 mg/day, unbaited trap 48.3): 31.4^b
- percent reduction in trap catch compared with the unbaited trap ([2]; Experiment B, 2.2 mg/day): (60%)
- Back-transformed mean catch per replicate ([2]; Experiment B, 2.2 mg/day, unbaited trap 333.1): 130.7^bc
- percent reduction in trap catch compared with the unbaited trap ([2]; Experiment B, 25 mg/day): (75%)
- Back-transformed mean catch per replicate ([2]; Experiment B, 25 mg/day, unbaited trap 333.1): 84.6^c
- numbers of parasitized aphids, treated versus untreated plots [3]: no significant difference
- numbers of cereal aphids per 60 tillers, treated versus untreated plots ([3]; five sampling dates, significant on last two dates): consistently lower
- mean number of observations in the treated arm [4]: 4.1±1.55
- % showing oriented flight ([5]; V. faba plants 48 hr after exposure (100 μg/l in air), single choice test, hexane control 20, P<0.01): 44%
- parasitoids oriented towards the treated plant compared to the control ([5]; dual choice test of treated or untreated plants): over 3 times
- % oriented to treated plant ([5]; dual choice test, treated plant versus control plant, 48 hr after exposure (100 μg/l in air), control plant 10, P<0.05): 32%
- behavioural effect on adult Lepidoptera [6]: attract adult Lepidoptera

Reference: patent US8221736B2, “Semiochemical” (Rothamsted Research Limited, priority 1999, dated 2012)
